# Several values for one entry are separate records, joined by “and”; a condition that tells them apart may be missing. Equal entries are not always repeated. Where two headings read alike, the source gives them in different places.
# B1: Ajovy (antibody, chains of the INN, looked up, V domains shown)
# VH: EVQLVESGGGLVQPGGSLRLSCAASGFTFSNYWISWVRQAPGKGLEWVAEIRSESDASATHYAEAVKGRFTISRDNAKNSLYLQMNSLRAEDTAVYYCLAYFDYGLAIQNYWGQGTLVTVSS
# VL: EIVLTQSPATLSLSPGERATLSCKASKRVTTYVSWYQQKPGQAPRLLIYGASNRYLGIPARFSGSGSGTDFTLTISSLEPEDFAVYYCSQSYNYPYTFGQGTKLEIK
# B2: erenumab (antibody, chains of the INN, looked up, V domains shown)
# VH: QVQLVESGGGVVQPGRSLRLSCAASGFTFSSFGMHWVRQAPGKGLEWVAVISFDGSIKYSVDSVKGRFTISRDNSKNTLFLQMNSLRAEDTAVYYCARDRLNYYDSSGYYHYKYYGMAVWGQGTTVTVSS
# VL: QSVLTQPPSVSAAPGQKVTISCSGSSSNIGNNYVSWYQQLPGTAPKLLIYDNNKRPSGIPDRFSGSKSGTSTTLGITGLQTGDEADYYCGTWDSRLSAVVFGGGTKLTVL
# Legend:
# Conditions in all cases: human, in vivo
# migraine [1] = system: migraine
# migraine [2] = system: migraine; remark: listed apart in the source
# chronic migraine [3] = system: chronic migraine
# chronic migraine [4] = system: chronic migraine; remark: listed apart in the source
# chronic migraine [5] = system: chronic migraine; remark: listed apart in the source
molecule,measurement,setting,value
"CN(C)CCC=C1c2ccccc2CCc2ccccc21 [Amitriptyline, amitriptyline]",change of headaches with oral medication,migraine [1],minimal change
same,adverse effect of oral preventive medication,migraine [2],weight gain
same,effect of oral preventive medication on headache frequency,migraine [2],none of these reduced their headache frequency
"CC12CC3CC(C)(C1)CC(N)(C3)C2 [Namenda, memantine]",benefit of added treatment,migraine [1],minimal benefit
CC(C)NCC(O)COc1cccc2ccccc12 (centres unmarked) [Propranolol],adverse effect of oral preventive medication,migraine [2],limited their exercise tolerance
same,effect of oral preventive medication on headache frequency,migraine [2],none of these reduced their headache frequency
"C[C@@H]1[C@H](c2c(F)ccc(F)c2F)C[C@H](NC(=O)c2cnc3c(c2)C[C@@]2(C3)C(=O)Nc3ncccc32)C(=O)N1CC(F)(F)F [atogepant, reference compound]",headache frequency,chronic migraine [3],9 days a month
CC1(C)O[C@@H]2[C@@H](CO[C@@]3(COS(N)(=O)=O)OC(C)(C)O[C@@H]23)O1 [topiramate],headache control with oral preventive medication,chronic migraine [4]; po,without headache control
same,change of headaches with oral medication,migraine [1],minimal change
same,adverse effect of oral preventive medication,migraine [2],cognitive slowing
same,effect of oral preventive medication on headache frequency,migraine [2],none of these reduced their headache frequency
OnabotulinumtoxinA,improvement of headache days from baseline,chronic migraine [4],about 50%
same,migraine days per month,chronic migraine [4],15 days per month
same,headache frequency,chronic migraine [3],10 days a month
same,headache frequency,migraine [1],10/30
same,headache intensity,migraine [1],6-7 out of a scale of 10
same,headache frequency post treatment,chronic migraine [5],14 days/month
same,headache intensity,migraine [2],7 out of 10
B1,headache intensity,migraine [2]; sc,lower intensity
B2,headache frequency,chronic migraine [5],10 days/month and 15 days/month
